Results as given in article PMC6056748, “Amsacrine Derivatives Selectively Inhibit Mycobacterial Topoisomerase I (TopA), Impair M. smegmatis Growth and Disturb Chromosome Replication” (Frontiers in Microbiology, 2018).
Like-named read-outs stand apart in the source and are kept apart here.

How the values were obtained:
MsTopA [1] = target: T1, MsTopA (Mycolicibacterium smegmatis, UniProt A0R5D9); assay: Surface plasmon resonance of MsTopA binding to immobilized DNA; parameters: species or system M. smegmatis; details: for MsTopA affinity for DNA (SPR): 15–90 μM compound, MsTopA 60 nM; for ICB, inhibitory concentration that completely blocks MsTopA binding: 241 bp DNA on chip, inhibitor preincubated with MsTopA
T1 sequence (A0R5D9 whole entry): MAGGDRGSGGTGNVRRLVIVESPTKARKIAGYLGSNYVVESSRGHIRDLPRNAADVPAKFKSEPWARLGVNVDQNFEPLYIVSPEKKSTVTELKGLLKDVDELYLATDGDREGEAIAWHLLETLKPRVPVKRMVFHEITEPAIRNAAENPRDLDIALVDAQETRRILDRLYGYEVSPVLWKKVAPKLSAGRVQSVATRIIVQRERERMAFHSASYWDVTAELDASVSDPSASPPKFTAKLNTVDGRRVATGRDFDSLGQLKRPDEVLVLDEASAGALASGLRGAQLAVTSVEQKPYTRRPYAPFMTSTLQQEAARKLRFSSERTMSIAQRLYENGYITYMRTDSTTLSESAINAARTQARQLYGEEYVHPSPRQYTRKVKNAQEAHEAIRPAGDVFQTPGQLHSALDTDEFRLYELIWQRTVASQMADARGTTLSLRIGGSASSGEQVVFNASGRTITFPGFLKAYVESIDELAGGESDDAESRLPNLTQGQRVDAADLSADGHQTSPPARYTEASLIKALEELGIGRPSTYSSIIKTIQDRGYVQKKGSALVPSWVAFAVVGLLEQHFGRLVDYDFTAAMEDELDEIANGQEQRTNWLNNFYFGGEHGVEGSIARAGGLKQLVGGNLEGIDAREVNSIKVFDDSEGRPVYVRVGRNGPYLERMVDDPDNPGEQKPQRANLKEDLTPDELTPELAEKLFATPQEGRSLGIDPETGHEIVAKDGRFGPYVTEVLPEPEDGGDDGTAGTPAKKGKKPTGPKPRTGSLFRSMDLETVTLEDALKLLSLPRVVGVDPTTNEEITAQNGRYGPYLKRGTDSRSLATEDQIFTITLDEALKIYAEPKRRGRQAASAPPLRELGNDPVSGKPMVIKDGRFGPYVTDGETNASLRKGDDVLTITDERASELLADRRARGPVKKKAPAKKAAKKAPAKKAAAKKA
Procedure: Surface plasmon resonance (SPR)
SPR analyses were performed on a BIAcore T200. For the SPR analyses, the biotinylated fragment (241-bp long) was amplified using parA4200 and parS4440_rv_biot oligonucleotides from S. coelicolor chromosome. DNA immobilization on the surface of the sensor chip SA and protein binding analyses were performed according to the procedure described by Strzalka et al.[9]. Prior to binding to the DNA-coated chip, MsTopA (50 nM) in 25 mM NaH2PO4 pH 8.0, 150 mM NaCl and 5% glycerol (binding buffer) was incubated on ice for 40 minutes with amsacrine or its XC derivatives (in 15 - 90 µM concentrations or 1% DMSO for the control experiment). For each compound, the ICB value was estimated as the inhibitor concentration that completely abolished the binding of MsTopA to the DNA-coated chip.

S. venezuelae = assay: Growth analysis (Bioscreen C, log-phase growth rate); format: cell-based; details: for IC50: growth rate in log-phase, Figure 2B
E. coli = assay: as above; format: cell-based; details: Escherichia coli; for IC50: growth rate in log-phase, Figure 2B
MsTopA [2] = target: T1, MsTopA; assay: Topoisomerase I activity assay (relaxation of negatively supercoiled pUC19); format: biochemical, M. smegmatis; details: 60 nM MsTopA; for inhibition at 60 µM: 60 μM inhibitor; for MsTopA activity inhibition over concentration range: concentrations from 15 to 60 μM; for MsTopA inhibition in the screen of amsacrine derivatives (Table S2): 60 μM compound, data not shown
Procedure: The amsacrine derivatives were stored at 4°C as 20 mM stock solutions in DMSO. Shortly before the activity assays, the inhibitors were diluted in DMSO to reach working concentration (0.15–0.6 mM). An 18 μl mixture containing 120 ng MsTopA, 25 mM NaH2PO4 at pH 8.0, 150 mM NaCl, 5% glycerol, 10 mM MgCl2 and a tested inhibitor in a final concentration of 15, 30, or 60 μM was incubated for 30 min on ice. To start the reaction, 2.0 μl (140 ng) of negatively supercoiled pUC19 plasmid were added to the mixture and incubated for 15 min at 37°C in the presence of 60 nM MsTopA. The reaction was stopped by adding 1.5 μl of 0.5 M EDTA. DNA was resolved in 0.8% agarose in TAE buffer at 140 V for 3 h at room temperature. Topoisomers distribution was visualized by ethidium bromide staining for 30 min at room temperature. Subsequently, the fluorescence signal of supercoiled plasmid and the relaxed topoisomers was calculated using ImageJ Fiji suite (http://fiji.sc/Fiji). To determine the efficiency of MsTopA inhibition, we calculated the fraction of total plasmid that remained supercoiled after the reaction.

M. smegmatis mc2155 = assay: Growth analysis (Bioscreen C, log-phase growth rate); format: cell-based; details: for inhibition at 30 µM: log-phase growth rate vs 1% DMSO; for IC50 lower than amsacrine: M. smegmatis growth
[3] = test system: M. smegmatis (JH01 strain); assay: Propidium iodide staining of dead cells (TLMM); details: 120 μM, after 15 hours of exposure
Procedure: For time-lapse microscopy, M. smegmatis strains were cultured to the log-phase of growth, then diluted with 7H9 medium supplemented with 10% OADC and 0.05% Tween-80 and loaded into the flow chamber of B04A plates with a CellASIC ONIX flow control system (Merck-Millipore). During the experiment, the cells were continuously supplied with fresh medium supplemented with the inhibitor (at 30–240 μM concentrations) or 1% DMSO in the control experiment. To visualize dead cells, after 15 h of inhibitor treatment cells were washed with propidium iodide at concentration 10 μg/ml for 1 h. The images were taken in 10 min intervals using a Delta Vision Elite Imager equipped with DV Elite CoolSnap HQ2 Camera and SoftWorx software and were subsequently analyzed using ImageJ Fiji suite (http://fiji.sc/Fiji) and R suite (http://www.R-project.org).
M. smegmatis (JH01 strain) growth in the presence of 120 µM amsacrine or 1% DMSO was
visualized using TLMM microscopy (the procedure descirbed in the materials and methods).
After 15 hours of exposure to antibiotic cells were washed with medium suplemented with 10
µg/ml propidium iodide for 1 hour to detect dead cells (red) in the population.

[4] = test system: M. smegmatis MSZ2 strain producing M. tuberculosis MtTopA; format: cell-based
[5] = test system: M. smegmatis strain (JH01), DnaN-EGFP; assay: TLMM: replisome lifetime and cell cycle phases; details: for Phase D+B / Phase C / Complete cell cycle: 120 µM, mean (SD), n = 50; for Phase D+B: 1% DMSO 33 (15); for Phase C: 1% DMSO 129 (15); for Complete cell cycle: 1% DMSO 162 (18); for Average lifetime of DnaN-EGFP complex (replisome lifetime): 120 μM, control 1% DMSO 130 min
Procedure: For time-lapse microscopy, M. smegmatis strains were cultured to the log-phase of growth, then diluted with 7H9 medium supplemented with 10% OADC and 0.05% Tween-80 and loaded into the flow chamber of B04A plates with a CellASIC ONIX flow control system (Merck-Millipore). During the experiment, the cells were continuously supplied with fresh medium supplemented with the inhibitor (at 30–240 μM concentrations) or 1% DMSO in the control experiment. […] The images were taken in 10 min intervals using a Delta Vision Elite Imager equipped with DV Elite CoolSnap HQ2 Camera and SoftWorx software and were subsequently analyzed using ImageJ Fiji suite (http://fiji.sc/Fiji) and R suite (http://www.R-project.org). The analysis of cell cycle and evaluation of particular phases of growth started from the moment of appearance of a single DnaN-EGFP foci (initiation of DNA replication).
The calculation of an average time of particular phases of M. smegmatis cell cycle.
Phase C corresponds to chromosome replication. It starts with the appearance of a single DnaN-
EGFP focus (time 0) (green dot), which subsequently splits into two foci.
the termination of DNA replication and cell division and the time after cell division prior to initiation of
replication. The time of complete cell cycle is the sum of C and D+B phases.The data in the table show
the average time of each phase as well as the time of complete M. smegmatis cell cycle in TLMM
experiment (see the material and methods) in control experiment (DMSO) or during treatment with
amsacrine/XC-4 inhibitor.

[6] = test system: M. smegmatis strain (JH01), DnaN-EGFP; assay: TLMM: number of DnaN-EGFP foci per cell
MsTopA [7] = target: T1, MsTopA; assay: MsTopA inhibition in PI, NI and PN order-of-addition assays; format: biochemical, M. smegmatis; details: 60 μM inhibitor, 60 nM MsTopA
Procedure: In the inhibition assays used to test the effect of inhibitor binding to the enzyme, DNA or the enzyme-DNA complex (PI—protein-inhibitor binding, NI—nucleic acid-inhibitor binding, or PNI—protein-nucleic acid binding) the complete reaction mixtures (as above) without magnesium ions and one of the reaction components (substrate, enzyme or inhibitor in the PI, NI, and PNI assays, respectively) were preincubated for 30 min on ice. Subsequently, the reactions were started by adding magnesium chloride and the missing component: negatively supercoiled pUC19 plasmid, MsTopA protein or the particular inhibitors. The reactions were performed for 5 min at 37°C and stopped by adding 1.5 μl of 0.5 M EDTA. Topoisomers were resolved and analyzed according to the procedure described above.

[8] = Solubility under microfluidic conditions; format: physicochemical
[9] = Mycolicibacterium smegmatis, MC2155
[10] = Mycolicibacterium smegmatis, MC2155, M. smegmatis, Figure S4, read-out: IC50 (growth inhibition fitted to a sigmoidal model)
[11] = Mycolicibacterium smegmatis, MC2155, growth rate in log-phase, Figure 2B, read-out: IC50 M. smegmatis

Row | Structure (SMILES) | MsTopA affinity for DNA (SPR) (MsTopA [1]) | ICB, inhibitory concentration that completely blocks MsTopA binding (MsTopA [1]) [µM] | IC50 (S. venezuelae; Streptomyces venezuelae) [µM] | IC50 (E. coli) [µM] | inhibition at 60 µM (MsTopA [2]) [%] | MsTopA activity inhibition over concentration range (MsTopA [2]) | inhibition at 30 µM (M. smegmatis mc2155; [9]) [%] | IC50 (M. smegmatis mc2155; [10]) [µM] | IC50 (M. smegmatis mc2155; [11]) [µM] | Difference in growth inhibition between wild-type M. smegmatis and MSZ2 strain producing MtTopA [4] | Phase D+B [5] | Phase C [5] | Average lifetime of DnaN-EGFP complex (replisome lifetime) [5] | Percentage of cells with more than two DnaN-EGFP foci ([6]; 120 μM) | Percentage of cells with no DnaN-EGFP focus ([6]; 120 μM) | S. venezuelae growth inhibition (S. venezuelae; 60 μM) | MsTopA inhibition in the screen of amsacrine derivatives (Table S2) (MsTopA [2]) | Inhibitory effect when added to the preformed MsTopA-DNA complex (PN assay) (MsTopA [7]) | IC50 lower than amsacrine (M. smegmatis mc2155) | also measured
1 | COc1cc(NS(C)(=O)=O)ccc1Nc1c2ccccc2nc2ccccc12 [Amsacrine, amsacrine] | decrease in enzyme affinity for DNA | 90 | 47 | > 90 | 64 | strongly inhibit MsTopA activity at concentrations >30 μM | 20 to 30 | 40 | 41 | did not observe any differences in growth inhibition | 40 (21) min | 154 (32) min | slightly increased | 27.6% | 26.1% | – | – | – | – | inhibition at 60 µM (S. venezuelae; Streptomyces venezuelae, 60 μM): ≤ 80%; inhibition at 60 µM (E. coli; read-out: E. coli growth inhibition): 32%; inhibition at 60 µM (M. smegmatis mc2155; Mycolicibacterium smegmatis, MC2155, 60 μM): ≤ 80%; Fraction of dead cells (propidium iodide) [3]: 12%; Complete cell cycle [5]: 194 (36) min; Complete cell cycle ([5]; listed as amsacrine): only slightly; Percentage of cells with more than two DnaN-EGFP foci ([6]; 240 μM): 6.2%; Percentage of cells with no DnaN-EGFP focus ([6]; 240 μM): 48%
2 | COc1cc(NS(=O)(=O)c2ccccc2)ccc1Nc1c2ccccc2nc2ccccc12 [XC-1] | decrease in enzyme affinity for DNA | 60 | > 90 | > 90 | 73 | strongly inhibit MsTopA activity at concentrations >30 μM | 20 to 30 | 55.4 | 58 | did not observe any differences in growth inhibition | – | – | slightly increased | 13.4–19.1% | 13.8–18.3% | much lesser extent than amsacrine | efficiently inhibited MsTopA activity | notably weaker | – | –
3 | COc1cc(NS(=O)(=O)c2ccc(Cl)cc2)ccc1Nc1c2ccccc2nc2ccccc12 [XC-2] | decrease in enzyme affinity for DNA | 30 | 85 | > 90 | 63 | strongly inhibit MsTopA activity at concentrations >30 μM | 20 to 30 | 56 | – | did not observe any differences in growth inhibition | – | – | slightly increased | 13.4–19.1% | 13.8–18.3% | much lesser extent than amsacrine | efficiently inhibited MsTopA activity | notably weaker | – | –
4 | COc1cc(NS(=O)(=O)c2ccc([N+](=O)[O-])cc2)ccc1Nc1c2ccccc2nc2ccccc12 [XC-3] | decrease in enzyme affinity for DNA | 15 | > 90 | 78 | 73 | strongly inhibit MsTopA activity at concentrations >30 μM | 55 to 60 | 26.8 | 26 | did not observe any differences in growth inhibition | – | – | slightly increased | 13.4–19.1% | 13.8–18.3% | much lesser extent than amsacrine | efficiently inhibited MsTopA activity | – | 30–40% | Solubility under microfluidic conditions [8]: poor solubility
5 | COc1cc(NS(=O)(=O)c2ccc(C)cc2)ccc1Nc1c2ccccc2nc2ccccc12 [XC-4] | decrease in enzyme affinity for DNA | 15 | > 90 | 86 | 80 | strongly inhibit MsTopA activity at concentrations >30 μM | 55 to 60 | 27 | 28 | did not observe any differences in growth inhibition | 70 (38) min | 240 (51) min | 220 min | 4.6% | – | much lesser extent than amsacrine | efficiently inhibited MsTopA activity | – | 30–40% | DnaN-EGFP lifetime ([5]; 30 μM, compared with 120 μM XC-4): shortened the DnaN-EGFP lifetime; Percentage of cells with more than two DnaN-EGFP foci ([6]; 30 μM): 19.3%
6 | COc1cc([C@@H]2c3cc4c(cc3[C@@H](O[C@@H]3O[C@@H]5CO[C@@H](C)O[C@H]5[C@H](O)[C@H]3O)[C@H]3COC(=O)[C@H]23)OCO4)cc(OC)c1O [etoposide, reference compound] | – | – | – | – | – | – | – | – | – | – | – | – | – | – | – | – | – | – | – | MsTopA inhibition (MsTopA [2]; etoposide 0.1 - 2.0 mM): did not observe MsTopA inhibition
